From publication PMC2673918 (Journal of natural products, 2009)

How the values were obtained:
trypsin = trypsin inhibition; assay type: biochemical; conditions: at concentrations up to 100 µg/mL
chymotrypsin = chymotrypsin inhibition; assay type: biochemical; conditions: at concentrations up to 100 µg/mL

For Anabaenopeptin 908 [Compound 3], the “trypsin inhibition (qualitative)” value (trypsin) was “did not observe trypsin/chymotrypsin inhibition” and the “chymotrypsin inhibition (qualitative)” value (chymotrypsin) was “did not observe trypsin/chymotrypsin inhibition”.
For Anabaenopeptin 915 [Compound 4], the “trypsin inhibition (qualitative)” value (trypsin) was “did not observe trypsin/chymotrypsin inhibition” and the “chymotrypsin inhibition (qualitative)” value (chymotrypsin) was “did not observe trypsin/chymotrypsin inhibition”.
